Experimental data from ChEMBL document CHEMBL5291721, “A preclinical secondary pharmacology resource illuminates target-adverse drug reaction associations of marketed drugs” (Nat Commun, 2023).

What was measured:
[1] = biological target: Kappa-type opioid receptor (Homo sapiens, UniProt P41145)
[2] = biological target: Delta-type opioid receptor (Homo sapiens, UniProt P41143)
[3] = biological target: T1, Alpha-2A adrenergic receptor (Homo sapiens, UniProt P08913); format: functional, cell-based
T1 sequence (P08913 whole entry): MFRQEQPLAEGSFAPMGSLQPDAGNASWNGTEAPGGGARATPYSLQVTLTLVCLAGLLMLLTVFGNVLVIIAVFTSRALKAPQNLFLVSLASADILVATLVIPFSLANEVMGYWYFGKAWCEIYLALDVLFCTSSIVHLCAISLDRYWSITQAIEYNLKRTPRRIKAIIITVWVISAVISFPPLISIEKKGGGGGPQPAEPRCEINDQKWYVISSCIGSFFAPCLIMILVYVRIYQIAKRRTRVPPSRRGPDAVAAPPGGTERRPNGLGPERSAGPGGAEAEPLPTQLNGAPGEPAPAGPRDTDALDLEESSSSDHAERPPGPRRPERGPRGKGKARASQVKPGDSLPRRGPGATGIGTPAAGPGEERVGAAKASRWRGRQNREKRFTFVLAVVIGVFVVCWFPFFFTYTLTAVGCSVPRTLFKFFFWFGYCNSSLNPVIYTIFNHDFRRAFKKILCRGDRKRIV

[4] = biological target: Sodium-dependent dopamine transporter (Homo sapiens, UniProt Q01959)
Sodium-dependent dopamine transporter, sequence (Q01959 whole entry): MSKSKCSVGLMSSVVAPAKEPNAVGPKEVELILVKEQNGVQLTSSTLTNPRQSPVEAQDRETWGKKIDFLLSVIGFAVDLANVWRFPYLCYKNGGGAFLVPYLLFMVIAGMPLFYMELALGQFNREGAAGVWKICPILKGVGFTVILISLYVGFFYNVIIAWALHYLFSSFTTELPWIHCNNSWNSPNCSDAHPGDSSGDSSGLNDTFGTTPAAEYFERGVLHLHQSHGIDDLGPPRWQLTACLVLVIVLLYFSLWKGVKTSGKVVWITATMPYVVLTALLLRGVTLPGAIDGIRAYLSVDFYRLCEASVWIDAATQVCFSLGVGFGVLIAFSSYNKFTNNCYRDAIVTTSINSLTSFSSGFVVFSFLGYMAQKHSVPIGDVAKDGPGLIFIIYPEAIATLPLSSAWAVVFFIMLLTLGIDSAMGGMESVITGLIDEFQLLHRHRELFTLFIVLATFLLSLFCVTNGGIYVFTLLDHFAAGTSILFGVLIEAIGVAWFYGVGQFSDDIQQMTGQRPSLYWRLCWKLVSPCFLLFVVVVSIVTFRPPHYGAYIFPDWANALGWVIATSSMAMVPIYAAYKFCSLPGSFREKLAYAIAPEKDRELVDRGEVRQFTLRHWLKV

[5] = biological target: T2, Gastrin/cholecystokinin type B receptor (Homo sapiens, UniProt P32239)
T2 sequence (P32239 whole entry): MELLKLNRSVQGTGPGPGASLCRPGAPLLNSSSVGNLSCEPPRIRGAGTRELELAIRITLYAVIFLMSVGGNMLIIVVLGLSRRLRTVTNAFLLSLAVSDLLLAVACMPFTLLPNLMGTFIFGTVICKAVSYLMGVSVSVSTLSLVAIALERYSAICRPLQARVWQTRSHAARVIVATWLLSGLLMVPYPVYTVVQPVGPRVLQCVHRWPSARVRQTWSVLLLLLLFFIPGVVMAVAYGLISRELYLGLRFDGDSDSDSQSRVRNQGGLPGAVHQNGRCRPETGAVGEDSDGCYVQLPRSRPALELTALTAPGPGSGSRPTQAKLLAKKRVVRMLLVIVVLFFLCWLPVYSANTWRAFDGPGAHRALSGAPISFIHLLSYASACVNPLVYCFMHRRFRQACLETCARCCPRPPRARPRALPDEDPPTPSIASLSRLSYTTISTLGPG

Vasopressin V1a receptor = Vasopressin V1a receptor (Homo sapiens, UniProt P37288)
Vasopressin V1a receptor, sequence (P37288 whole entry): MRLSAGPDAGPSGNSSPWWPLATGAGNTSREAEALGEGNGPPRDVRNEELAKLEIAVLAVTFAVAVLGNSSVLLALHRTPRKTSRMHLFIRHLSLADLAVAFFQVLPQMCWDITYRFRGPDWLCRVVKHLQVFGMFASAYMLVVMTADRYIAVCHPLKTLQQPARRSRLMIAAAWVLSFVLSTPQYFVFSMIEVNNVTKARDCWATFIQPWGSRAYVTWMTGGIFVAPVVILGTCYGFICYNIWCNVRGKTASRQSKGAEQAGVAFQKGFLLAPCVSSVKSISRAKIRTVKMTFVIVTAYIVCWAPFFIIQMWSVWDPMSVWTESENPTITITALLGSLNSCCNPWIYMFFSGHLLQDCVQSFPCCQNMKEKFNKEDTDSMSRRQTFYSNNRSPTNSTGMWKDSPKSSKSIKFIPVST

Adenosine receptor A3 = biological target: T3, Adenosine receptor A3 (Homo sapiens, UniProt P0DMS8)
T3 sequence (P0DMS8 whole entry): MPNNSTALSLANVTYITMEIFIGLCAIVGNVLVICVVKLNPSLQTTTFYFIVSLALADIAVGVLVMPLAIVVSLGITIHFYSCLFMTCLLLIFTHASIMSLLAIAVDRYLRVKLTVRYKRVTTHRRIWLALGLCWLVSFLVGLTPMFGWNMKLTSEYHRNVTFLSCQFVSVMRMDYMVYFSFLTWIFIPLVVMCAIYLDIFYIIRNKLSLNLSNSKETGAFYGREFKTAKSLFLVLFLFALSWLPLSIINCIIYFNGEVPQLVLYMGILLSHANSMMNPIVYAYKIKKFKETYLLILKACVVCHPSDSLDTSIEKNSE

[6] = biological target: Voltage-gated inwardly rectifying potassium channel KCNH2 (Homo sapiens, UniProt Q12809); format: functional
Voltage-gated inwardly rectifying potassium channel KCNH2, sequence (Q12809 whole entry): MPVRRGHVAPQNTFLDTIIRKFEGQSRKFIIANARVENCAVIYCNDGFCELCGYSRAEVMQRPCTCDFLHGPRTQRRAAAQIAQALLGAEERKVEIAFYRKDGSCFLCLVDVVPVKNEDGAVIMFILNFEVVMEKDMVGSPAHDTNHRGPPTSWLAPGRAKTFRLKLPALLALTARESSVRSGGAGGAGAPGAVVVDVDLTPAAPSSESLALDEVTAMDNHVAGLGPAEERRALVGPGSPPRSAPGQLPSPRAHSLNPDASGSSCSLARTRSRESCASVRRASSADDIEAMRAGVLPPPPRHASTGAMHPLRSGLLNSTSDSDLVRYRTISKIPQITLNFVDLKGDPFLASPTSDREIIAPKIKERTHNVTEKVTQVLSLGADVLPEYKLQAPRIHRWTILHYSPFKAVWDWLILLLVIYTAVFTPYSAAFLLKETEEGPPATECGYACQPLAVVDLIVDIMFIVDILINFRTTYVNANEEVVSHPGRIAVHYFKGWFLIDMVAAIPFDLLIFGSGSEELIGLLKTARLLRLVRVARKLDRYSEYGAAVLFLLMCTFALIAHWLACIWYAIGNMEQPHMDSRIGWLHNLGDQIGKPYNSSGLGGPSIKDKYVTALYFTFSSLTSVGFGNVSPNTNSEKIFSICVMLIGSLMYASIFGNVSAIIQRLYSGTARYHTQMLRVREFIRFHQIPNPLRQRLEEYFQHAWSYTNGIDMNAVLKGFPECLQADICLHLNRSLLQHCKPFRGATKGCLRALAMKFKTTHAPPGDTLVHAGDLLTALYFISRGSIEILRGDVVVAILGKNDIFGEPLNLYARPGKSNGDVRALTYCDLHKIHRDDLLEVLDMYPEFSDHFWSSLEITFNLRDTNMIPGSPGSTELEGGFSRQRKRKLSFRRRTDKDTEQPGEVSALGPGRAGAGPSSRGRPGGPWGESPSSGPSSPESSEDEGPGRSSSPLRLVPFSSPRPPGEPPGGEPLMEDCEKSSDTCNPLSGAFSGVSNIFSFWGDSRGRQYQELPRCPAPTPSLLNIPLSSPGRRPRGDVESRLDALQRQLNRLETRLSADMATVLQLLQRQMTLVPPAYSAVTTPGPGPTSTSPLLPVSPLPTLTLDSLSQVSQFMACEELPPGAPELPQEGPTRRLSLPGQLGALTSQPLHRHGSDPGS

[7] = biological target: T4, Amine oxidase [flavin-containing] A (Homo sapiens, UniProt P21397); format: functional
T4 sequence (P21397 whole entry): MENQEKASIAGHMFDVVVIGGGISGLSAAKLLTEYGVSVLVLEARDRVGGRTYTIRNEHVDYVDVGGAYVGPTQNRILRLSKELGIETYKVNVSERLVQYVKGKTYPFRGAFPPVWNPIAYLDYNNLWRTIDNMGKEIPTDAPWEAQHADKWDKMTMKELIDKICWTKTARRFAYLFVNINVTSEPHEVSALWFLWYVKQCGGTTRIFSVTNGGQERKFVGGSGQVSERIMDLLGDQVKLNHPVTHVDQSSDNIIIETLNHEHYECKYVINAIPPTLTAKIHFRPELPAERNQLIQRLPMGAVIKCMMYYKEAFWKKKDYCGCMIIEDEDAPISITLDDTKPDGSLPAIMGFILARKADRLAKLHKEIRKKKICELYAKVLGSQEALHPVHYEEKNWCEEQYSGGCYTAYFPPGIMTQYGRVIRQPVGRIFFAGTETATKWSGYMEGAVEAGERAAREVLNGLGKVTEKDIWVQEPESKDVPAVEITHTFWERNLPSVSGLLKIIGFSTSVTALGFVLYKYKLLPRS

Progesterone receptor = biological target: T5, Progesterone receptor (Homo sapiens, UniProt P06401); format: functional
T5 sequence (P06401 whole entry): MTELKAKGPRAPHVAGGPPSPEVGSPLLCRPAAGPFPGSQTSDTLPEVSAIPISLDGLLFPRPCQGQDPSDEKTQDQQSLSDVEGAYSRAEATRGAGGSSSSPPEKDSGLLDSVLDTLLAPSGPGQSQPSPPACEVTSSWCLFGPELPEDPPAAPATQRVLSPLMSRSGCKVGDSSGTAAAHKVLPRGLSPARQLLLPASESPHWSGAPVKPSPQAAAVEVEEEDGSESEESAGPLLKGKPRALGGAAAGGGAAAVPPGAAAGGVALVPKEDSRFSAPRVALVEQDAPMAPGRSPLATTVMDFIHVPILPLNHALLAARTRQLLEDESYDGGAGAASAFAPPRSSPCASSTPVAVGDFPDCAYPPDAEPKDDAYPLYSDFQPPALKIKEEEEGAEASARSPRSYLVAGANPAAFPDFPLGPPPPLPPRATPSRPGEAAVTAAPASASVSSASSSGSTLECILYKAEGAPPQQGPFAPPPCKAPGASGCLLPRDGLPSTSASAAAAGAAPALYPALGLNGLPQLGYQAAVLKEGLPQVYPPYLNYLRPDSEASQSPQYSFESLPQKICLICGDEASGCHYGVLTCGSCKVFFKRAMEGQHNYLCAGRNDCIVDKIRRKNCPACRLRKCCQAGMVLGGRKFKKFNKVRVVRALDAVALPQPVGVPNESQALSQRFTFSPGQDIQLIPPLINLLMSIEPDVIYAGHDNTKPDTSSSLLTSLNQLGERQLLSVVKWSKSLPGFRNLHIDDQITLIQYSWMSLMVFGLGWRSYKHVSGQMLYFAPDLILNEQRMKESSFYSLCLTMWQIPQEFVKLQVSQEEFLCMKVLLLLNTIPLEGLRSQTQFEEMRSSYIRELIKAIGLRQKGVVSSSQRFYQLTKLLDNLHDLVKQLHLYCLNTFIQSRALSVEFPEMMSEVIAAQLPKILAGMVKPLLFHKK

Measured: AC50
Also: assay procedure not described here.

Kappa-type opioid receptor, sequence (P41145 whole entry): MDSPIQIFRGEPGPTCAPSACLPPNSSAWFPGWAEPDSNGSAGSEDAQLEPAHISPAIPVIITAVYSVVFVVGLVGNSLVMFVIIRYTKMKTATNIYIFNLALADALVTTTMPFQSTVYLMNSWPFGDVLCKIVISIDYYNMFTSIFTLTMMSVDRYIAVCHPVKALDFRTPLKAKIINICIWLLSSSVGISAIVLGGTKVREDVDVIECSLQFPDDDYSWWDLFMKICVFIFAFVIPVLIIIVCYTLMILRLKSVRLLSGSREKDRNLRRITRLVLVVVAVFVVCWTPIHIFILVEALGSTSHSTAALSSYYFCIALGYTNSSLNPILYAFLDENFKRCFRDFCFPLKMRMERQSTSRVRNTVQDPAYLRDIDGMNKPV
Delta-type opioid receptor, sequence (P41143 whole entry): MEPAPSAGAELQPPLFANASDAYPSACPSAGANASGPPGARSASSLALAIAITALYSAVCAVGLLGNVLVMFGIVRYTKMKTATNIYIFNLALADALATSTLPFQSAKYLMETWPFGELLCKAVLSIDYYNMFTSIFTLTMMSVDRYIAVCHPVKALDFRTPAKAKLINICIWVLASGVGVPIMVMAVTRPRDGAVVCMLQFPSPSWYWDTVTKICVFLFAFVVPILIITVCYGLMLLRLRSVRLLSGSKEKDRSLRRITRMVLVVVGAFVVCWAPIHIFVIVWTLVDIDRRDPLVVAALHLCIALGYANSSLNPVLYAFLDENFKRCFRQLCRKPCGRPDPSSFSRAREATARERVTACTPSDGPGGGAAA

Oc1cc(O)c(Cl)cn1
not listed: Progesterone receptor
> 30 µM: all other assays above

Cc1cc(=O)n(-c2ccccc2)n1C [ANTIPYRINE]
> 10 µM: [1] | [3] | [7]
not listed: Vasopressin V1a receptor | Progesterone receptor
> 30 µM: all other assays above

COc1cc(N)c(Cl)cc1C(=O)NC1CCN(CCCOc2ccc(F)cc2)CC1OC (configuration not stated) [CISAPRIDE]
> 30 µM: [4] | [5] | Vasopressin V1a receptor | Adenosine receptor A3
16.7 µM: [1]
> 10 µM: [2] | [7]

CC(CN(C)C)C(C)(O)Cc1ccc(Cl)cc1 (configuration not stated) [CLOBUTINOL]
> 10 µM: [1] | [3] | [7]
8.45 µM: [6]
not listed: Vasopressin V1a receptor
> 30 µM: all other assays above

CCOC(=O)C(C)(C)Oc1ccc(Cl)cc1 [CLOFIBRATE]
> 10 µM: [1] | [3] | [7]
not listed: Progesterone receptor
> 30 µM: all other assays above

C[C@@H]1C[C@H]2[C@@H]3CCC4=CC(=O)C=C[C@]4(C)[C@@]3(F)[C@@H](O)C[C@]2(C)[C@@]1(O)C(=O)CO [DEXAMETHASONE]
> 10 µM: [1] | [3]
not listed: Progesterone receptor
> 30 µM: all other assays above

CCN1CC(CCN2CCOCC2)C(c2ccccc2)(c2ccccc2)C1=O (configuration not stated) [DOXAPRAM]
10.5 µM: [6]
not listed: Vasopressin V1a receptor
> 30 µM: all other assays above

CCCCOc1ccc(C(=O)CCN2CCCCC2)cc1 [DYCLONINE]
> 30 µM: [5] | Adenosine receptor A3
4.82 µM: [4]
3.3 µM: [6]
not listed: Progesterone receptor
> 10 µM: all other assays above

CC(C)NC[C@H](O)COc1ccc(CC(N)=O)cc1 [ESATENOLOL]
> 10 µM: [1] | [2] | [3] | Vasopressin V1a receptor | [7]
> 30 µM: [5] | Adenosine receptor A3

CCOC(=O)c1ncn2c1CN(C)C(=O)c1cc(F)ccc1-2 [FLUMAZENIL]
not listed: Vasopressin V1a receptor
> 30 µM: all other assays above

O=C1Nc2ccc(Cl)cc2C(c2ccccc2Cl)=NC1O (configuration not stated) [LORAZEPAM]
> 30 µM: [2] | [5] | Adenosine receptor A3 | [6]
not listed: Progesterone receptor
> 10 µM: all other assays above

CN1CCN=C(c2ccccc2)c2cc(Cl)ccc21 [MEDAZEPAM]
22 µM: [4]
0.99 µM: [1]
15 µM: Adenosine receptor A3
not listed: [6] | Progesterone receptor
> 30 µM: all other assays above

Cc1ccnc2c1NC(=O)c1cccnc1N2C1CC1 [NEVIRAPINE]
> 30 µM: [5] | [6]
1.02 µM: Adenosine receptor A3
not listed: Progesterone receptor
> 10 µM: all other assays above

C[C@]12C/C(=C/O)C(=O)C[C@@H]1CC[C@@H]1[C@@H]2CC[C@@]2(C)[C@H]1CC[C@]2(C)O [OXYMETHOLONE]
8.2 µM: Adenosine receptor A3
not listed: Vasopressin V1a receptor | Progesterone receptor
> 30 µM: all other assays above

Fc1ccc([C@@H]2CCNC[C@H]2COc2ccc3c(c2)OCO3)cc1 [PAROXETINE]
0.83 µM: [2]
> 30 µM: [5]
22.5 µM: Adenosine receptor A3
> 10 µM: Vasopressin V1a receptor | [7]

CCC(=O)O[C@](Cc1ccccc1)(c1ccccc1)[C@H](C)CN(C)C [PROPOXYPHENE]
> 10 µM: [3] | [4] | Vasopressin V1a receptor | [7]
11 µM: [2]
1.74 µM: [6]
> 30 µM: [5] | Adenosine receptor A3

O=c1c(O)c(-c2ccc(O)c(O)c2)oc2cc(O)cc(O)c12 [QUERCETIN]
12.7 µM: [1]
5.6 µM: [7]
4.2 µM: Adenosine receptor A3
not listed: [4] | Progesterone receptor
> 30 µM: all other assays above

CCOC(=O)c1ccc(C#Cc2ccc3c(c2)C(C)(C)CCS3)nc1 [TAZAROTENE]
> 10 µM: [1] | [3] | [7]
not listed: Vasopressin V1a receptor | Progesterone receptor
> 30 µM: all other assays above

COc1cc(C(=O)NC2CCCNC2)cc(OC)c1OC (configuration not stated) [TROXIPIDE]
16 µM: [1]
not listed: Vasopressin V1a receptor
> 30 µM: all other assays above
